Test results taken from patent EP3168211A1, “PHARMACEUTICAL CO-CRYSTALS OF NICLOSAMIDE” (Westfälische Wilhelms-Universität Münster, priority 2015, dated 2017).
≈ marks a conversion by molar mass, not a printed value.

What was measured:
[1] = male Sprague-Dawley rats; cited from earlier work
[2] = physchem; settings: 37 °C, aqueous with cosolvent or surfactant or cyclodextrin, thermodynamic from solid
[3] = for factor: equilibrium solubility relative to pristine NCL; for factor / Solubility at 37° C (24 h) in 40% isopropanol-water mixture: 37°C, 24 h, 40% isopropanol-water; for increase of the equilibrium solubility: result in words, versus pristine NCL; for Solubility at 37° C (24 h) in 40% isopropanol-water mixture: equilibrium solubility, shake-flask, sample normalized to 50 mg of NCL in 2.5 mL
[4] = solubility factor relative to NCL reported by P. Sanphui et al.; weights not normalized to the amount of NCL; cited from earlier work

Compound	oral bioavailability [1]	solubility at 24 h [2]	factor [3]	increase of the equilibrium solubility [3]	Solubility at 37° C (24 h) in 40% isopropanol-water mixture [3]	factor* [4]
O=C(Nc1ccc([N+](=O)[O-])cc1Cl)c1cc(Cl)ccc1O [NCL, 2',5-dichloro-4'-nitrosalicylanilide]	10%	87.2 µg/mL (≈ 266 µM)				
Niclosamide - acetamide [NCL-AA-I]			1.4	moderate increase		
Niclosamide - isoniazide [NCL-IN]				moderate increase		
Niclosamide - isonicotinamide [NCL-IA]			1.3		113.45 µg/mL	1.7
Niclosamide - nicotinamide [NCL-NA]			1.3		114.45 µg/mL	1.2
